Where two headings read alike, the source gives them in different places.
Key:
[1] = Pharmacokinetics after oral administration to mice; format: in vivo, mouse; details: for Cmax / Tmax / AUC(0-t): mouse, plasma, po; for AUC(0-t): read-out: AUC0-4 h
Experimental: Plasma concentration of Compound B at 30 and 1000 mg/kg. Plasma samples were collected at 0.5, 1, 2, 4 and 6 h after oral treatment. Results represent the mean. n=3 per group.

M2R = target: T1, M2R (Homo sapiens, UniProt P08172); test: Ca2+ flux assay in CHO-K1 cells expressing human M2R; format: cell-based; design: expressed in transfected cells; host or cells: CHO-K1; details: read-out: IP for M2R
T1 sequence (P08172 1-466): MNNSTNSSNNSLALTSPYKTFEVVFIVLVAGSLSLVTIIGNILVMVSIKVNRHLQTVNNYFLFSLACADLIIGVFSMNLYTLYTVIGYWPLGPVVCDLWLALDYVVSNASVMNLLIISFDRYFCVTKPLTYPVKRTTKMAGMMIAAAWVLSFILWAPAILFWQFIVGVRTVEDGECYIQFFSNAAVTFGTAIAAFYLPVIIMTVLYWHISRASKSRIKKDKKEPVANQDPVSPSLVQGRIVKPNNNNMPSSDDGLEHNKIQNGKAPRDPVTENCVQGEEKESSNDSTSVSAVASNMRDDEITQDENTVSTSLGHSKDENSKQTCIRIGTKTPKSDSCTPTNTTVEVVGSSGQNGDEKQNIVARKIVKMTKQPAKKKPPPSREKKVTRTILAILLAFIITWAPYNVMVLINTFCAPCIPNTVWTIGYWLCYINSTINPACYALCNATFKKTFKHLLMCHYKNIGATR

M3R = M3R (Homo sapiens, UniProt P20309); test: Ca2+ flux assay in CHO-K1 cells expressing human M3R; format: cell-based; design: expressed in transfected cells; host or cells: CHO-K1; details: read-out: IP for M3R
rats = test: Assessment of cholinergic side effects in rats; details: SD, rat, in vivo, po, 240 min
Experimental: SD Rats were placed individually into observation cages and acclimated for at least 1 h. […] The severity of diarrhea was scored as follows: 0, normal pellets; 1, wet but formed feces; 2, swollen or mucous feces; 3, severe watery diarrhea. For diarrhea, the number of rats and mice, in which more than or equal to 2 was scored, was counted. For fasciculation, the number of rats with marked fasciculation of both the upper and lower limbs was counted. For lacrimation, the number of rats, in which moderate to marked discharge (severer lacrimation than fluid around eyes) was induced, was counted. For salivation, the number of rats with severe salivation, but not just noticeably wet around mouth, was induced was counted. The maximum score during the observation was adopted.
(§1) For diarrhea, the number of rats scored more than or equal to 2 was counted. For fasciculation, the number of rats with marked fasciculation of both the upper and lower limbs was counted. For lacrimation, the number of rats in which moderate to marked discharge (severer lacrimation than fluid around eyes) was counted. For salivation, the number of rats with severe salivation, but not just noticeably wet around mouth, was counted. The maximum score during the observation was adopted. Data were presented as the number of incidence per total rats.
as §1, with “in which loose” for “scored more than”, “mucous stool, or diarrhea was induced” for “equal to 2”, “(severe” for “(severer”, “eyes) was caused” for “eyes)”, “mouth” for “mouth,”

human M1R = target: T2, human M1R (Homo sapiens, UniProt P11229); test: Ca2+ flux assay in CHO-K1 cells expressing human M1 receptors (EC20 ACh); format: cell-based; design: expressed in transfected cells; details: for EC50: potentiating EC20 ACh, read-out: IP value for human M1R
T2 sequence (P11229 1-460): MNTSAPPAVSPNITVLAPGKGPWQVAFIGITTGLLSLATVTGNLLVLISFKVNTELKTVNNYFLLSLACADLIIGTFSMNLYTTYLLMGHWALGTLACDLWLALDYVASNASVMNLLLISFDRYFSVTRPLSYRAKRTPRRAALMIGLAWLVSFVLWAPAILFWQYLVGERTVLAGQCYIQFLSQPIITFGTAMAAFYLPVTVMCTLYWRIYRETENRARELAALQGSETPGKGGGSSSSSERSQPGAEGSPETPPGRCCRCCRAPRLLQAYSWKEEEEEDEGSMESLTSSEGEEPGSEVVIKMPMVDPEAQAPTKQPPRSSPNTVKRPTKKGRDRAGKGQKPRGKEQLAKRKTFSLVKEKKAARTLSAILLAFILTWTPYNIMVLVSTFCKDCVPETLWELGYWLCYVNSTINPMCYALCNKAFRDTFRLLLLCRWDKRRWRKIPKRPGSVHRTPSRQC
Experimental: CHO-K1 cells expressing human M1 receptors were plated on a 96-well black clear bottom plate (Corning, New York, NY) at 30,000 cells/well, and cultured at 37° C. and 5% CO2 for 1 day. The medium was removed and the cells were incubated with calcium dye buffer (HBSS (Life Technologies, Carlsbad, CA), 20 mM HEPES (Life Technologies), 0.1% fatty acid-free BSA (Wako), 0.08% pluronic F127 (Dojindo Laboratories, Kumamoto, Japan), 2.5 μg/mL Fluo-4 (Dojindo Laboratories), 1.25 mM probenecid (Dojindo Laboratories)) for 30 min at 37° C. and 5% CO2. After 30 min incubation at room temperature, the cells were stimulated with various concentrations of test compounds dissolved in assay buffer (HBSS (Life Technologies), 20 mM HEPES (Life Technologies), 0.1% fatty acid-free BSA (Wako)) containing EC20 concentrations (0.8-1 nM) of ACh and Ca^2+ response was measured using CeilLux (PerkinElmer). For determination of positive allosteric modulation activity of M1PAMs, the response to EC20 ACh was set as the 0% response and the response to 10 μM ACh was set as the 100% response. The potency of M1PAMs was shown as the value of inflection point (IP). IP value and 95% confidence intervals were calculated by XLfit of GraphPad Prism 5 Software (GraphPad Software Inc., LaJolla, CA, USA) from the data expressed as % of control.

Chain of M3R (P20309 whole entry): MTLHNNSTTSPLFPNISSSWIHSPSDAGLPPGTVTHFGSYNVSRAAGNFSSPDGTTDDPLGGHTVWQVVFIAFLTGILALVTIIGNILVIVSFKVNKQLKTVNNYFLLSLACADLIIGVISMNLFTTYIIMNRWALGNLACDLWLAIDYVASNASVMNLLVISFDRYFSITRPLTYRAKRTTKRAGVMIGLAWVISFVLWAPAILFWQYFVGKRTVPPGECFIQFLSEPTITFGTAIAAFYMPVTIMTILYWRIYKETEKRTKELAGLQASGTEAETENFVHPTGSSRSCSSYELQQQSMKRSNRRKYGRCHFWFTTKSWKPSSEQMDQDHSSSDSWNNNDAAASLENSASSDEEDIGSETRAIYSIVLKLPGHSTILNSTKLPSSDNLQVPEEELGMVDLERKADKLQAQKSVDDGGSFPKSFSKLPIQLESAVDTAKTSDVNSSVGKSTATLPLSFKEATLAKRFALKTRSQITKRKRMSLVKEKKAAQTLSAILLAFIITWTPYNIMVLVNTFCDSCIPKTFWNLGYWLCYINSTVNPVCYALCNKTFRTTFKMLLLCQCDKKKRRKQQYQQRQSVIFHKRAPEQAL

Which Cmax ([1]; 30 mg/kg p.o.) does the source give for `Cn1cc(-c2ccc(CN3Cc4cccc(Oc5c(F)cccc5C#N)c4C3=O)cc2)cn1` [Compound B, 3-fluoro-2-((2-(4-(1-methyl-1H-pyrazol-4-yl)benzyl)-3-oxo-2,3-dihydro-1H-isoindol-4-yl)oxy)benzonitrile] here?
The Cmax was 270 ng/mL.

And the Tmax ([1]; 30 mg/kg p.o.)?
The Tmax was 2 h.

What about the AUC(0-t) ([1]; 30 mg/kg p.o.) of the same compound?
Its AUC(0-t) is 800 ng·h/mL.

What about the Cmax ([1]; 1000 mg/kg p.o.) of the same compound?
The Cmax was 970 ng/mL.

And the Tmax ([1]; 1000 mg/kg p.o.)?
The Tmax was 1.7 h.

And the AUC(0-t) ([1]; 1000 mg/kg p.o.)?
Its AUC(0-t) is 3020 ng·h/mL.

And the “plasma concentration at 1000 mg/kg relative to 30 mg/kg” value ([1]; p.o.)?
Its value is 3.6 fold.

Which EC50 (M2R) does the source give for `Cn1cc(-c2ccc(Cc3cc4c(=O)n([C@H]5CCCC[C@@H]5O)cnc4c4ccccc34)cn2)cn1` [Compound C, 3-((1S,2S)-2-hydroxycyclohexyl)-6-((6-(1-methyl-1H-pyrazol-4-yl)pyridin-3-yl)methyl)benzo[h]quinazoline-4(3H)-one, reference compound] here?
The EC50 was greater than 1000 nM.

And the EC50 (M3R)?
Its EC50 is greater than 1000 nM.

What about the Diarrhea (rats; 0.01 mg/kg) of the same compound?
The Diarrhea was 0/6 (0%).

And the Fasciculation (rats; 0.01 mg/kg)?
The Fasciculation was 0/6 (0%).

And the Lacrimation (rats; 0.01 mg/kg)?
The Lacrimation was 0/6 (0%).

And the Myosis (rats; 0.01 mg/kg)?
Its Myosis is 0/6 (0%).

What about the Salivation (rats; 0.01 mg/kg) of the same compound?
Its Salivation is 0/6 (0%).

And the Diarrhea (rats; 0.03 mg/kg)?
The Diarrhea was 0/6 (0%).

And the Fasciculation (rats; 0.03 mg/kg)?
The Fasciculation was 0/6 (0%).

And the Lacrimation (rats; 0.03 mg/kg)?
Its Lacrimation is 0/6 (0%).

And the Myosis (rats; 0.03 mg/kg)?
The Myosis was 0/6 (0%).

What about the Salivation (rats; 0.03 mg/kg) of the same compound?
The Salivation was 0/6 (0%).

What about the Diarrhea (rats; 0.1 mg/kg) of the same compound?
Its Diarrhea is 3/6 (50%).

What about the Fasciculation (rats; 0.1 mg/kg) of the same compound?
The Fasciculation was 0/6 (0%).

And the Lacrimation (rats; 0.1 mg/kg)?
The Lacrimation was 0/6 (0%).

And the Myosis (rats; 0.1 mg/kg)?
The Myosis was 0/6 (0%).

And the Salivation (rats; 0.1 mg/kg)?
The Salivation was 0/6 (0%).

And the Diarrhea (rats; 0.3 mg/kg)?
Its Diarrhea is 4/6 (67%).

And the Fasciculation (rats; 0.3 mg/kg)?
Its Fasciculation is 0/6 (0%).

What about the Lacrimation (rats; 0.3 mg/kg) of the same compound?
The Lacrimation was 0/6 (0%).

And the Myosis (rats; 0.3 mg/kg)?
The Myosis was 0/6 (0%).

What about the Salivation (rats; 0.3 mg/kg) of the same compound?
Its Salivation is 0/6 (0%).

What about the “minimal diarrhea inducing dose in rats” value (rats) of the same compound?
Its value is 0.1 mg/kg.

What about the EC50 (human M1R) of the same compound?
Its EC50 is 0.62 nM.

For `Cc1c(Cc2ccc(-n3cccn3)cc2)cc2c(c1F)CN([C@H]1COCC[C@@H]1O)C2=O` [Compound D, 4-fluoro-2-[(3S,4S)-4-hydroxytetrahydro-2H-pyran-3-yl]-5-methyl-6-[4-(1H-pyrazol-1-yl)benzyl]-2,3-dihydro-1H-isoindol-1-one], which EC50 (M2R) is on record?
Its EC50 is greater than 10000 nM.

What about the EC50 (M3R) of the same compound?
The EC50 was greater than 10000 nM.

What about the Diarrhea (rats; 1 mg/kg) of the same compound?
Its Diarrhea is 0/6 (0%).

What about the Fasciculation (rats; 1 mg/kg) of the same compound?
The Fasciculation was 0/6 (0%).

What about the Lacrimation (rats; 1 mg/kg) of the same compound?
The Lacrimation was 0/6 (0%).

What about the Myosis (rats; 1 mg/kg) of the same compound?
Its Myosis is 0/6 (0%).

And the Salivation (rats; 1 mg/kg)?
Its Salivation is 0/6 (0%).

What about the Diarrhea (rats; 3 mg/kg) of the same compound?
The Diarrhea was 1/6 (17%).

What about the Fasciculation (rats; 3 mg/kg) of the same compound?
The Fasciculation was 0/6 (0%).

And the Lacrimation (rats; 3 mg/kg)?
Its Lacrimation is 0/6 (0%).

What about the Myosis (rats; 3 mg/kg) of the same compound?
The Myosis was 0/6 (0%).

What about the Salivation (rats; 3 mg/kg) of the same compound?
Its Salivation is 0/6 (0%).

And the Diarrhea (rats; 10 mg/kg)?
Its Diarrhea is 5/6 (83%).

And the Fasciculation (rats; 10 mg/kg)?
The Fasciculation was 0/6 (0%).

And the Lacrimation (rats; 10 mg/kg)?
The Lacrimation was 0/6 (0%).

And the Myosis (rats; 10 mg/kg)?
Its Myosis is 0/6 (0%).

And the Salivation (rats; 10 mg/kg)?
The Salivation was 0/6 (0%).

What about the Diarrhea (rats; 30 mg/kg) of the same compound?
The Diarrhea was 4/6 (67%).

And the Fasciculation (rats; 30 mg/kg)?
The Fasciculation was 0/6 (0%).

And the Lacrimation (rats; 30 mg/kg)?
Its Lacrimation is 0/6 (0%).

And the Myosis (rats; 30 mg/kg)?
The Myosis was 0/6 (0%).

And the Salivation (rats; 30 mg/kg)?
Its Salivation is 0/6 (0%).

What about the “minimal diarrhea inducing dose in rats” value (rats) of the same compound?
Its value is 10 mg/kg.

What about the EC50 (human M1R) of the same compound?
The EC50 was 2.7 nM.

And the “M1R selectivity over other human muscarinic receptor subtypes” value (human M1R; vs M2-M5R)?
Its value is “not less than 3700 fold”.

— patent US12298319B2, “Method for measuring alpha value of muscarinic M1 receptor positive allosteric modulators” (Takeda Pharmaceutical Company Limited, priority 2017, dated 2025)
